In US20100267561A1, “HERBICIDAL PYRIDAZINONE DERIVATIVES” (priority 2007, published 2010):

Legend:
Assay in all cases: Test B pre-/postemergence plant response
Assay type in all cases: in vivo
[1] = system: large crabgrass (Digitaria sanguinalis); conditions: for Crabgrass, Large plant response rating: 8 g ai/ha
How it was run: (§1)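 Seeds were sown and sprayed preemergence, while plants at 2 to 18 cm (1- to 4-leaf stage) got postemergence sprays. Compounds were formulated in a non-phytotoxic solvent mixture with surfactant. After 13 to 15 days in a greenhouse, injury was rated visually against untreated controls, 0 (no effect) to 100 (complete control).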

[2] = system: soybean (Glycine max); conditions: for Soybean plant response rating: 8 g ai/ha
How it was run: as §1

[3] = system: Russian thistle (Salsola iberica); conditions: Preemergence
How it was run: as §1

[4] = system: downy bromegrass (Bromus tectorum); conditions: for Bromegrass, Downy plant response rating: 8 g ai/ha
How it was run: as §1

[5] = system: pigweed (Amaranthus retroflexus); conditions: for Pigweed plant response rating: 8 g ai/ha
How it was run: as §1

[6] = system: common ragweed (Ambrosia elation); conditions: for Ragweed plant response rating: 8 g ai/ha
How it was run: as §1

[7] = system: Italian ryegrass (Lolium multiflorum); conditions: for Ryegrass, Italian plant response rating: 8 g ai/ha
How it was run: as §1

[8] = system: goosegrass (Eleusine indica); conditions: for Goosegrass plant response rating: 8 g ai/ha
How it was run: as §1

[9] = system: woolly cupgrass (Eriochloa villosa); conditions: for Cupgrass, Woolly plant response rating: 8 g ai/ha
How it was run: as §1

[10] = system: cocklebur (Xanthium strumarium); conditions: for Cocklebur plant response rating: 8 g ai/ha
How it was run: as §1

[11] = system: catchweed bedstraw (Galium aparine); conditions: Preemergence
How it was run: as §1

[12] = system: surinam grass (Brachiaria decumbens); conditions: for Surinam Grass plant response rating: 8 g ai/ha
How it was run: as §1

[13] = system: common (oilseed) sunflower (Helianthus annuus); conditions: Preemergence
How it was run: as §1

[14] = system: kochia (Kochia scoparia); conditions: for Kochia plant response rating: 8 g ai/ha
How it was run: as §1

[15] = Postemergence, 16 g ai/ha, scale 0 to 100
[16] = Postemergence, 31 g ai/ha, scale 0 to 100, 0 no effect, 100 complete control
[17] = Postemergence, 62 g ai/ha, scale 0 to 100
[18] = Preemergence, 16 g ai/ha, scale 0 to 100 (0 no effect, 100 complete control)
[19] = Preemergence, 31 g ai/ha, 0 to 100 scale, 0 no effect, 100 complete control
[20] = Preemergence, 62 g ai/ha, scale 0 to 100
[21] = 16 g ai/ha, scale 0 to 100 (0 no effect, 100 complete control)
[22] = 31 g ai/ha, 0 to 100 scale, 0 no effect, 100 complete control

SMILES: CCc1cc(-c2ccc(F)cc2)nn1-c1c(O)cnn(C)c1=O [Compound 25]
- Crabgrass, Large plant response rating ([1]; postemergence, 0-100 scale): 5
- Plant response rating, Crabgrass, Large [1, 15]: 60
- Plant response rating, Crabgrass, Large [1, 16]: 75
- Plant response rating, Crabgrass, Large [1, 17]: 80
- Plant response rating, Crabgrass, Large [1, 18]: 20
- Plant response rating, Crabgrass, Large [1, 19]: 60
- Plant response rating, Crabgrass, Large [1, 20]: 80
- Crabgrass, Large plant response rating ([1]; Preemergence, scale 0 to 100): 0
- Soybean plant response rating ([2]; postemergence, 0-100 scale): 0
- Plant response rating, Soybean [2, 15]: 0
- Plant response rating, Soybean [2, 16]: 0
- Plant response rating, Soybean [2, 17]: 0
- Plant response rating, Soybean [2, 18]: 0
- Plant response rating, Soybean [2, 19]: 0
- Plant response rating, Soybean [2, 20]: 0
- Soybean plant response rating ([2]; Preemergence, scale 0 to 100): 0
- Plant response rating, Russian Thistle [3, 21]: 0
- Plant response rating, Russian Thistle [3, 22]: 0
- Plant response rating, Russian Thistle ([3]; 62 g ai/ha, scale 0 to 100): 0
- Russian Thistle plant response rating ([3]; 8 g ai/ha, scale 0 to 100): 0
- Bromegrass, Downy plant response rating ([4]; postemergence, 0-100 scale): 0
- Plant response rating, Bromegrass, Downy [4, 15]: 0
- Plant response rating, Bromegrass, Downy [4, 16]: 10
- Plant response rating, Bromegrass, Downy [4, 17]: 15
- Plant response rating, Bromegrass, Downy [4, 18]: 0
- Plant response rating, Bromegrass, Downy [4, 19]: 0
- Plant response rating, Bromegrass, Downy [4, 20]: 0
- Bromegrass, Downy plant response rating ([4]; Preemergence, scale 0 to 100): 0
- Pigweed plant response rating ([5]; postemergence, 0-100 scale): 0
- Plant response rating, Pigweed [5, 15]: 0
- Plant response rating, Pigweed [5, 16]: 0
- Plant response rating, Pigweed [5, 17]: 10
- Plant response rating, Pigweed [5, 18]: 0
- Plant response rating, Pigweed [5, 19]: 0
- Plant response rating, Pigweed [5, 20]: 80
- Pigweed plant response rating ([5]; Preemergence, scale 0 to 100): 0
- Ragweed plant response rating ([6]; postemergence, 0-100 scale): 0
- Plant response rating, Ragweed [6, 15]: 0
- Plant response rating, Ragweed [6, 16]: 0
- Plant response rating, Ragweed [6, 17]: 0
- Plant response rating, Ragweed [6, 18]: 0
- Plant response rating, Ragweed [6, 19]: 0
- Plant response rating, Ragweed [6, 20]: 0
- Ragweed plant response rating ([6]; Preemergence, scale 0 to 100): 0
- Ryegrass, Italian plant response rating ([7]; postemergence, 0-100 scale): 60
- Plant response rating, Ryegrass, Italian [7, 15]: 80
- Plant response rating, Ryegrass, Italian [7, 16]: 85
- Plant response rating, Ryegrass, Italian [7, 17]: 95
- Plant response rating, Ryegrass, Italian [7, 18]: 50
- Plant response rating, Ryegrass, Italian [7, 19]: 90
- Plant response rating, Ryegrass, Italian [7, 20]: 100
- Ryegrass, Italian plant response rating ([7]; Preemergence, scale 0 to 100): 50
- Goosegrass plant response rating ([8]; postemergence, 0-100 scale): 0
- Plant response rating, Goosegrass [8, 15]: 0
- Plant response rating, Goosegrass [8, 16]: 0
- Plant response rating, Goosegrass [8, 17]: 50
- Plant response rating, Goosegrass [8, 18]: 50
- Plant response rating, Goosegrass [8, 19]: 75
- Plant response rating, Goosegrass [8, 20]: 85
- Goosegrass plant response rating ([8]; Preemergence, scale 0 to 100): 0
- Cupgrass, Woolly plant response rating ([9]; postemergence, 0-100 scale): 60
- Plant response rating, Cupgrass, Woolly [9, 15]: 80
- Plant response rating, Cupgrass, Woolly [9, 16]: 85
- Plant response rating, Cupgrass, Woolly [9, 17]: 100
- Plant response rating, Cupgrass, Woolly [9, 18]: 40
- Plant response rating, Cupgrass, Woolly [9, 19]: 80
- Plant response rating, Cupgrass, Woolly [9, 20]: 80
- Cupgrass, Woolly plant response rating ([9]; Preemergence, scale 0 to 100): 0
- Cocklebur plant response rating ([10]; postemergence, 0-100 scale): 0
- Plant response rating, Cocklebur [10, 15]: 0
- Plant response rating, Cocklebur [10, 16]: 0
- Plant response rating, Cocklebur [10, 17]: 0
- Plant response rating, Cocklebur [10, 18]: 0
- Plant response rating, Cocklebur [10, 19]: 0
- Plant response rating, Cocklebur [10, 20]: 0
- Cocklebur plant response rating ([10]; Preemergence, scale 0 to 100): 0
- Plant response rating, Galium [11, 21]: 0
- Plant response rating, Galium [11, 22]: 0
- Plant response rating, Galium ([11]; 62 g ai/ha, scale 0 to 100): 0
- Galium plant response rating ([11]; 8 g ai/ha, scale 0 to 100): 0
- Surinam Grass plant response rating ([12]; postemergence, 0-100 scale): 50
- Plant response rating, Surinam Grass [12, 15]: 60
- Plant response rating, Surinam Grass [12, 16]: 95
- Plant response rating, Surinam Grass [12, 17]: 100
- Plant response rating, Surinam Grass [12, 18]: 85
- Plant response rating, Surinam Grass [12, 19]: 85
- Plant response rating, Surinam Grass [12, 20]: 100
- Surinam Grass plant response rating ([12]; Preemergence, scale 0 to 100): 50
- Plant response rating, Sunflower [13, 21]: 0
- Plant response rating, Sunflower [13, 22]: 0
- Plant response rating, Sunflower ([13]; 62 g ai/ha, scale 0 to 100): 0
- Sunflower plant response rating ([13]; 8 g ai/ha, scale 0 to 100): 0
- Kochia plant response rating ([14]; postemergence, 0-100 scale): 0
- Plant response rating, Kochia [14, 15]: 0
- Plant response rating, Kochia [14, 16]: 0
- Plant response rating, Kochia [14, 17]: 0
- Plant response rating, Kochia [14, 18]: 0
- Plant response rating, Kochia [14, 20]: 50
- Kochia plant response rating ([14]; Preemergence, scale 0 to 100): 0
